Results reported in PubChem BioAssay AID248 (DTP/NCI, 2004).
Where “and” joins values, the source holds several entries; their conditions need not be identical. Equal entries are not always repeated. Toxic doses and inconclusive results are not listed.

Tested on: L1210 leukemia ip in BDF1 mice, survival T/C
Experiment: NCI In Vivo Anticancer Drug Screen. Data for tumor model L1210 Leukemia (intraperitoneal) in B6D2F1 (BDF1) mice
Conditions: endpoint: mean survival time, higher = longer survival
Outline: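 Transplanted-tumor mice were given test agent; controls received vehicle only. Survival readings from the two groups were divided (treated over control).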

[1] = dose: 100.0 mg/kg/injection, schedule: Q04DX002 (ip), vehicle: saline with Tween-80

C=CCN(CC=C)CCN1CCN(CCCN2c3ccccc3Sc3ccc(C(F)(F)F)cc32)CC1
T/C (dose: 6.25 mg/kg/injection, schedule: Q01DX009 (ip), vehicle: saline): 98 % of control
T/C (dose: 6.25 mg/kg/injection, schedule: Q04DX003 (ip), vehicle: saline): 109 % of control
T/C (dose: 12.5 mg/kg/injection, schedule: Q01DX009 (ip), vehicle: saline): 100 % of control
T/C (dose: 12.5 mg/kg/injection, schedule: Q04DX003 (ip), vehicle: saline): 91 % of control
T/C (dose: 25.0 mg/kg/injection, schedule: Q01DX009 (ip), vehicle: saline): 94 % of control
T/C (dose: 25.0 mg/kg/injection, schedule: Q04DX003 (ip), vehicle: saline): 112 % of control
T/C (dose: 50.0 mg/kg/injection, schedule: Q04DX003 (ip), vehicle: saline): 97 % of control
T/C (dose: 56.25 mg/kg/injection, schedule: Q01DX001 (ip), vehicle: saline): 102 % of control
T/C (dose: 100.0 mg/kg/injection, schedule: Q04DX003 (ip), vehicle: saline): 119 % of control
T/C (dose: 112.5 mg/kg/injection, schedule: Q01DX001 (ip), vehicle: saline): 114 % of control

CC(N)CCC(O)C(=O)O (stereo not drawn)
T/C (dose: 100.0 mg/kg/injection, schedule: Q04DX002 (ip), vehicle: saline): 95 % of control
T/C (dose: 200.0 mg/kg/injection, schedule: Q04DX002 (ip), vehicle: saline): 100 % of control
T/C (dose: 400.0 mg/kg/injection, schedule: Q04DX002 (ip), vehicle: saline): 107 % of control

Cc1ccc(N2CCN(C3=CCC(C(C)C)CC3)CC2)cc1Cl (stereo not drawn)
T/C (dose: 100.0 mg/kg/injection, schedule: Q01DX009 (ip), vehicle: saline with Tween-80): 106 % of control

O=C(O)c1ccc(N=NSc2ncnc3nc[nH]c23)cc1O
T/C (dose: 2.5 mg/kg/injection, schedule: Q01DX Z (ip), vehicle: carboxymethylcellulose (CMC)): 150 % of control
T/C (dose: 5.0 mg/kg/injection, schedule: Q01DX Z (ip), vehicle: carboxymethylcellulose (CMC)): 116 % of control
T/C (dose: 10.0 mg/kg/injection, schedule: Q01DX Z (ip), vehicle: carboxymethylcellulose (CMC)): 116 % of control
T/C (dose: 20.0 mg/kg/injection, schedule: Q01DX Z (ip), vehicle: carboxymethylcellulose (CMC)): 107 % of control
T/C (dose: 40.0 mg/kg/injection, schedule: Q01DX015 (ip), vehicle: carboxymethylcellulose (CMC)): 88 % of control

O=c1[nH][n+]([O-])cc2c(C(O)=C(O)O)c[nH]c12
T/C (dose: 25.0 mg/kg/injection, schedule: Q04DX002 (ip), vehicle: saline with Tween-80): 94 % of control
T/C (dose: 50.0 mg/kg/injection, schedule: Q04DX002 (ip), vehicle: saline with Tween-80): 98 % of control
T/C [1]: 105 % of control

C[CH2][Pb]([CH2]C)([CH2]C)[O]C(=O)C=C1CCCC1
T/C (dose: 2.5 mg/kg/injection, schedule: Q01DX009 (ip), vehicle: saline with Tween-80): 101 % of control

Cc1ccc(Oc2ccc(-c3cc(=O)c4cc(S(=O)(=O)F)ccc4[nH]3)cc2)cc1
T/C (dose: 100.0 mg/kg/injection, schedule: Q04DX003 (ip), vehicle: gum acacia): 96 % of control
T/C (dose: 200.0 mg/kg/injection, schedule: Q04DX003 (ip), vehicle: gum acacia): 88 % of control
T/C (dose: 400.0 mg/kg/injection, schedule: Q04DX003 (ip), vehicle: gum acacia): 86 % of control

COc1ccc([N+](=O)[O-])cc1NC(=O)Oc1ccc(SC)cc1
T/C (dose: 50.0 mg/kg/injection, schedule: Q01DX009 (ip), vehicle: Klucel (hydroxypropylcellulose) (HPC)): 111 % of control
T/C (dose: 100.0 mg/kg/injection, schedule: Q01DX009 (ip), vehicle: Klucel (hydroxypropylcellulose) (HPC)): 92 % of control
T/C (dose: 200.0 mg/kg/injection, schedule: Q01DX009 (ip), vehicle: Klucel (hydroxypropylcellulose) (HPC)): 100 % of control

Oc1ccc2ccccc2c1/C=C1/C=Nc2ccccc21
T/C [1]: 88 % of control
T/C (dose: 200.0 mg/kg/injection, schedule: Q04DX002 (ip), vehicle: saline with Tween-80): 88 % of control
T/C (dose: 400.0 mg/kg/injection, schedule: Q04DX002 (ip), vehicle: saline with Tween-80): 103 % of control

CCCCCCCCCCCCCCCCCCNC(=S)NN=C(NNC(=S)NCCCCCCCCCCCCCCCCCC)NNC(=S)NCCCCCCCCCCCCCCCCCC
T/C (dose: 15.0 mg/kg/injection, schedule: Q01DX Z (ip), vehicle: carboxymethylcellulose (CMC)): 101 % of control
T/C (dose: 30.0 mg/kg/injection, schedule: Q01DX Z (ip), vehicle: carboxymethylcellulose (CMC)): 111 % of control
T/C (dose: 60.0 mg/kg/injection, schedule: Q01DX Z (ip), vehicle: carboxymethylcellulose (CMC)): 109 % of control and 114 % of control
T/C (dose: 120.0 mg/kg/injection, schedule: Q01DX Z (ip), vehicle: carboxymethylcellulose (CMC)): 114 % of control
T/C (dose: 240.0 mg/kg/injection, schedule: Q01DX Z (ip), vehicle: carboxymethylcellulose (CMC)): 111 % of control
T/C (dose: 480.0 mg/kg/injection, schedule: Q01DX Z (ip), vehicle: carboxymethylcellulose (CMC)): 111 % of control
